Measurements: patent US9422309B2, “3-O-heteroaryl-ingenol” (LEO LABORATORIES LIMITED, priority 2012, dated 2016)

Tests used:
Type in all cases: cell-based
HeLa cells = test: Necrosis assay; conditions: Homo sapiens, 0.5 h, 30 min at 37° C., PrestoBlue, normalised to 4 10^−4 M PEP0005/ingenol mebutate, read-out: HeLa necrosis EC50 range
Procedure: HeLa cells (ATCC CCL-002) were grown in minimal essential medium (Invitrogen catalog no. 42360) containing 10% fetal bovine serum, 100 IU/ml penicillin and 100 μg/ml streptomycin. 4,000-6,000 cells were seeded into 96-well black ViewPlates-plates, clear bottom, (Perkin Elmer) in 100 μl medium and incubated overnight. Compounds were dissolved and pre-diluted in DMSO in 96-well polypropylene plates (Greiner) in a concentration range of 15 μM to 600 μM. At the time of the experiment cell plates were placed on heating blocks at 37° C., medium was removed and 40 μl fresh, pre-warmed medium was added per well. Cells were incubated for 15 min before addition of compounds. In parallel, 3 μl of compounds were diluted with 197 μl growth medium on a Tecan freedom-EVO pipetting station using 250 μl/s pipetting speed, in order to ensure effective mixing of the highly concentrated compound solutions with the aqueous phase.
These pre-dilution plates were then equilibrated on heating blocks at 37° C. for 10 min. 80 μl pre-diluted compound were transferred manually to the corresponding wells containing HeLa cells yielding compound concentrations of 10 μM to 400 μM. Control conditions were 1% DMSO in growth medium (100% viability) and 400 μM ingenol mebutate in growth medium (0% viability). Plates were incubated on the heating blocks at 37° C. for 30 min. At the end of the incubation 10 μl PrestoBlue reagent (Invitrogen) were added to each well, plates were sealed with black seal, followed by incubation at 37° C. for 10 min with gentle shaking (150 rpm). Subsequently, plates were placed at room temperature for 20-30 min. Plates were read immediately after on an Envision Fluorescence reader (Perkin Elmer) with excitation at 535 nm and emission at 630 nm. Test compound titration curves were fitted to a four-parameter sigmoidal curve after normalizing the effect of the test compound to the effect of the positive control (4 10^−4 M PEP0005/ingenol mebutate). Abs EC50 denotes the concentration of test compound producing 50% effect.

[1] = tested on: PMN's (polymorphonuclear leukocytes); test: Neutrophil oxidative burst; conditions: Leukocyte, 40 min; 40 min incubation at rt; normalised to 5×10^−7 M PEP0005; read-out: Neutrophil oxidative burst Rel EC50 range
Procedure: PMN's (polymorphonuclear leukocytes) are isolated and purified from fresh buffy coats by sequential sedimentation, density centrifugation and lysis of contaminating erythrocytes. In brief, buffy coats are incubated with 2% methocel for 30-45 min to differentially sediment red blood cells. The leukocyte-rich supernatant is transferred to lymphoprep tubes to remove mononuclear cells by density centrifugation (400×g, 30 min). The pellet is resuspended and any remaining erythrocytes lysed using 0.2% NaCl for 30 sec before restoring isotonicity by the addition of 1.2% NaCl. This step is repeated until the cell pellet appears relatively free of red blood cells. Cells are resuspended in DPBS (Dulbecco's Phosphate Buffered Saline) (w.o. Ca^2+, Mg^2+) and the concentration adjusted to 1.4×10^6 cells/ml in HBSS (Hanks Balanced Salt solution) (w Ca^2+, Mg^2+) containing 0.1% BSA (Bovine Serum Albumin) and 5 mM glucose just prior to assay initiation. Titrated reference and test compounds are pre-mixed with HE (Hydroethidine) (10 μM final assay concentration) before addition to 96-well plates containing 2.5×10^5 cells. Following 40 min incubation at rt, changes in the respiratory burst is estimated by measuring fluorescence at 579 nm (excitation: 485 nm) using an Envision plate reader.
Test compound titration curves are fitted to a four-parameter sigmoidal curve after normalizing the effect of the test compound to the effect of the positive control (5×10^−7 M PEP0005). Rel EC50 denotes the concentration of test compound producing an effect that is midway between the fitted top and bottom. Abs EC50 is the concentration of test compound that provokes a response corresponding to 50% of the maximal effect associated with the positive control (5×10^−7 M PEP0005).

[2] = tested on: Primary human epidermal keratinocytes, HeKa; test: HeKa cytokine release (IL-8); conditions: 6 h at 37° C., normalised to 1.5×10^−7 M PEP0005, read-out: HeKa cytokine release (IL-8) Rel EC50 range
Procedure: Primary human epidermal keratinocytes, HeKa, are seeded (10.000 cells/well) in 96-well plates the day before the assay. Test compounds are diluted in DMSO (dimethyl sulfoxide) and further diluted in assay medium and pipetted into wells of 96 well-plates containing HeKa cells. The plates are incubated for 6 h at 37° C. in humidified air with 5% CO2. Plates are centrifuged briefly to spin down cells at 4° C., the supernatant is removed and analysed by Meso Scale Discovery (MSD) 4-spot cytokine assay (Pro-inflammatory II Ultra Sensitive kit, MSD, MD, USA). The MSD assay employs a sandwich immunoassay format where capture antibodies are coated in a patterned array on the bottom of the wells of a 4-Spot-Multi-MSD plate. Standard samples are incubated in the MULTI-SPOT plates as well, and the cytokine (IL-8) binds to its corresponding capture antibody spot. The cytokine level is quantitated on a SECTOR™ Imager using a cytokine-specific Detection Antibody labelled with MSD SULFO-TAG™ reagent.
Test compound titration curves are fitted to a four-parameter sigmoidal curve after normalizing the effect of the test compound to the effect of the positive control (1.5×10^−7 M PEP0005). Rel EC50 denotes the concentration of test compound producing an effect that is midway between the fitted top and bottom.

SMILES | EC50 (HeLa cells) [µM] | EC50 [1] [µM] | EC50 [2] [µM]
CC1=C[C@]23C(=O)[C@@H](C=C(CO)[C@@H](O)[C@]2(O)[C@H]1Oc1noc2ccccc12)[C@H]1[C@@H](C[C@H]3C)C1(C)C [Compound 102, 3-O-(1,2-Benzoxazol-3-yl)-ingenol] | 150 to 350 | < 0.02 | < 0.02
CC1=C[C@]23C(=O)[C@@H](C=C(CO)[C@@H](O)[C@]2(O)[C@H]1Oc1ncccc1C(F)(F)F)[C@H]1[C@@H](C[C@H]3C)C1(C)C [Compound 118, 3-O-(3-(Trifluoromethyl)-2-pyridyl)-ingenol] | < 150 | < 0.02 | 0.02 to 0.1
CC1=C[C@]23C(=O)[C@@H](C=C(CO)[C@@H](O)[C@]2(O)[C@H]1Oc1cccc(C(F)(F)F)n1)[C@H]1[C@@H](C[C@H]3C)C1(C)C [Compound 117, 3-O-(6-(Trifluoromethyl)-2-pyridyl)-ingenol] | ≥ 350 | ≥ 0.1 | ≥ 0.1
CC1=C[C@]23C(=O)[C@@H](C=C(CO)[C@@H](O)[C@]2(O)[C@H]1Oc1noc2ccc(Cl)cc12)[C@H]1[C@@H](C[C@H]3C)C1(C)C [Compound 131, 3-O-(5-Chloro-1,2-benzoxazol-3-yl)-ingenol] | < 150 | < 0.02 | < 0.02
CC1=C[C@]23C(=O)[C@@H](C=C(CO)[C@@H](O)[C@]2(O)[C@H]1Oc1nccc2ccccc12)[C@H]1[C@@H](C[C@H]3C)C1(C)C [Compound 119, 3-O-(1-Isoquinolyl)-ingenol] | 150 to 350 | 0.02 to 0.1 | < 0.02
COc1cccnc1O[C@H]1C(C)=C[C@]23C(=O)[C@@H](C=C(CO)[C@@H](O)[C@]12O)[C@H]1[C@@H](C[C@H]3C)C1(C)C [Compound 129, 3-O-(3-Methoxy-pyridin-2-yl)-ingenol] | ≥ 350 | ≥ 0.1 | ≥ 0.1
CC1=C[C@]23C(=O)[C@@H](C=C(CO)[C@@H](O)[C@]2(O)[C@H]1Oc1ncccc1C)[C@H]1[C@@H](C[C@H]3C)C1(C)C [Compound 124, 3-O-(3-Methyl-2-pyridyl)-ingenol] | ≥ 350 | ≥ 0.1 | ≥ 0.1
CC1=C[C@]23C(=O)[C@@H](C=C(CO)[C@@H](O)[C@]2(O)[C@H]1Oc1nccn1C1CCCC1)[C@H]1[C@@H](C[C@H]3C)C1(C)C [Compound 120, 3-O-(1-Cyclopentylimidazol-2-yl)-ingenol] | 150 to 350 | < 0.02 | < 0.02
CC1=C[C@]23C(=O)[C@@H](C=C(CO)[C@@H](O)[C@]2(O)[C@H]1Oc1nccn1C)[C@H]1[C@@H](C[C@H]3C)C1(C)C [Compound 108, 3-O-(1-Methylimidazol-2-yl)-ingenol] | ≥ 350 | ≥ 0.1 | ≥ 0.1
C=CCc1c(Cl)ncnc1O[C@H]1C(C)=C[C@]23C(=O)[C@@H](C=C(CO)[C@@H](O)[C@]12O)[C@H]1[C@@H](C[C@H]3C)C1(C)C [Compound 104, 3-O-(5-Allyl-6-chloro-pyrimidin-4-yl)-ingenol] | < 150 | 0.02 to 0.1 | < 0.02
CC1=C[C@]23C(=O)[C@@H](C=C(CO)[C@@H](O)[C@]2(O)[C@H]1Oc1ccccn1)[C@H]1[C@@H](C[C@H]3C)C1(C)C [Compound 106, 3-O-(2-Pyridyl)-ingenol] | ≥ 350 | ≥ 0.1 | 0.02 to 0.1
CC1=C[C@]23C(=O)[C@@H](C=C(CO)[C@@H](O)[C@]2(O)[C@H]1Oc1ncccc1C=O)[C@H]1[C@@H](C[C@H]3C)C1(C)C [Compound 105, 3-O-(3-Formyl-2-pyridyl)-ingenol] | ≥ 350 | ≥ 0.1 | ≥ 0.1
COc1ccc2onc(O[C@H]3C(C)=C[C@]45C(=O)[C@@H](C=C(CO)[C@@H](O)[C@]34O)[C@H]3[C@@H](C[C@H]5C)C3(C)C)c2c1 [Compound 130, 3-O-(5-Methoxy-1,2-benzoxazol-3-yl)-ingenol] | 150 to 350 | < 0.02 | < 0.02
